Experimental data as given in ChEMBL document CHEMBL1201862, “PubChem BioAssay data set” (2004).
Activity calls are given as the source filed them.

Legend:
Large T antigen = Large T antigen (Simian virus 40, UniProt P03070); assay type: functional, Betapolyomavirus macacae;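 also: Confirmatory-stage PubChem screen for compounds that inhibit SV40 T antigen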
H9c2 = assay: cells; assay type: functional, cell-based; settings: Rattus norvegicus, H9c2, Myocardium;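 also: confirmatory concentration-response retest of ultra-high-throughput screening hits for modulation of myocardial damage; cell death induced by hydrogen peroxide oxidative stress; compound pretreatment for 60 min then peroxide exposure for 2 h; potency is for protecting the cells against peroxide damage rather than for killing them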
[1] = target: Glyceraldehyde-3-phosphate dehydrogenase (Homo sapiens, UniProt P04406)
[2] = target: T1, Zinc finger protein mex-5 (Caenorhabditis elegans, UniProt Q9XUB2); assay: potency of MEX-5 RNA-binding blockers – biochemical, C. elegans, fluorescence polarization, dose response (AID 1960)
T1 sequence (Q9XUB2 whole entry): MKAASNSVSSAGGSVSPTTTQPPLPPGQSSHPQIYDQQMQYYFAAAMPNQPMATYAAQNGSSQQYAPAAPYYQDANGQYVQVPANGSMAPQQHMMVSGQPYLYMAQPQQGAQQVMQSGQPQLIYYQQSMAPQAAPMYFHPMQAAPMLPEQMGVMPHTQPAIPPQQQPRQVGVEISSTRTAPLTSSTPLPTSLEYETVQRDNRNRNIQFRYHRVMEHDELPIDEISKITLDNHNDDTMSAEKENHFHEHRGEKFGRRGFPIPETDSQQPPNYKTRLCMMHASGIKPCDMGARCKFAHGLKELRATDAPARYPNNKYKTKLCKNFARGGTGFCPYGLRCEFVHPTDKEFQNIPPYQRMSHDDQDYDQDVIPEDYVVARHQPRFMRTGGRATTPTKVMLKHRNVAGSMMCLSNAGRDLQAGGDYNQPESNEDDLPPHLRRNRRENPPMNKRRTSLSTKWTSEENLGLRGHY

[3] = target: T2, RNA-binding protein pos-1 (Caenorhabditis elegans, UniProt G5EF15); assay: disruptors of C. elegans POS-1 RNA interaction – biochemical, fluorescence polarization, dose response (AID 1964);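 also: purified POS-1 fused to maltose binding protein made in E. coli; potency of compounds blocking POS-1 binding to fluorescent RNA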
T2 sequence (G5EF15 whole entry): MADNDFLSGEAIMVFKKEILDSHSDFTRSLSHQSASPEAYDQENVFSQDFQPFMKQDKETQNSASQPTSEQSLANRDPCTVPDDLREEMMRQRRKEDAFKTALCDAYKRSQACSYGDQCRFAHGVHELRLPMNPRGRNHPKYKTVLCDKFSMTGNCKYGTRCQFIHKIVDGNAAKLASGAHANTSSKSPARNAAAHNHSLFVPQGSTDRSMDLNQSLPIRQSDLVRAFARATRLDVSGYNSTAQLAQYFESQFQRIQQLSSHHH

cells = assay type: functional
[4] = target: T3, Polyadenylate-binding protein 1 (Homo sapiens, UniProt P11940); assay: MLLE domain peptide-binding blockers, IC50 – biochemical, fluorescence polarization, FITC-PAM2 peptide, dose response (AID 602259); assay type: functional; settings: read-out: IC50_Mean
[5] = target: T3, Polyadenylate-binding protein 1; assay: MLLE binding blockers, Cy5 peptide tracer – biochemical, fluorescence polarization, Cy5-PAM2 peptide, secondary, miRNA deadenylation inhibitor project, dose response (AID 602260); assay type: functional; settings: read-out: IC50_Mean
[6] = target: T4, Corticotropin-releasing factor receptor 2/Corticotropin-releasing factor-binding protein (Homo sapiens, UniProt P24387+Q13324); assay: Dose Response confirmation of uHTS hits for small molecule antagonists of the CRF-binding protein and CRF-R2 receptor complex.; assay type: functional; settings: read-out: IC50_Mean
T4 sequence (Q13324 whole entry): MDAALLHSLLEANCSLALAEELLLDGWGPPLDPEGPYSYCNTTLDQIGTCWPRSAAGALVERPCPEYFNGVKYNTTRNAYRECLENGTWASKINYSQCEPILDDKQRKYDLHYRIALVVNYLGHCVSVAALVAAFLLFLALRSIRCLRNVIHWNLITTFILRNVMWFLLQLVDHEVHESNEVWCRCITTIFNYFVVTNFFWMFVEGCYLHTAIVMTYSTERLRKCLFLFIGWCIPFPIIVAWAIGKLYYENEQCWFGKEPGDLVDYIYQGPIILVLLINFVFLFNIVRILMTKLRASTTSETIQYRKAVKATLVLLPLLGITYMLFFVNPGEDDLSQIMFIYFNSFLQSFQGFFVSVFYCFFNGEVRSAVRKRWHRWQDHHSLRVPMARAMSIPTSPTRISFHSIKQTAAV
T4 sequence (P24387 whole entry): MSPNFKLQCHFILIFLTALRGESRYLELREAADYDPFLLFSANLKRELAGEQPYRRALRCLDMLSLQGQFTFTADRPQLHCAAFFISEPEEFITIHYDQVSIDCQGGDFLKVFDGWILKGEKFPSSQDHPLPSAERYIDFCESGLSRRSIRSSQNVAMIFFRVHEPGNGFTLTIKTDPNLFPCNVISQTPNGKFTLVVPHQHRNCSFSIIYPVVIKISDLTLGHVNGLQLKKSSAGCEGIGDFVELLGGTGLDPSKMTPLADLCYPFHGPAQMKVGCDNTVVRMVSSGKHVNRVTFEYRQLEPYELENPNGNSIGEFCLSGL

[7] = target: T4, Corticotropin-releasing factor receptor 2/Corticotropin-releasing factor-binding protein; assay: activators of CRF receptor 2 with binding protein – uHTS hits, confirmation (AID 602473); assay type: functional; settings: read-out: EC50_Mean
[8] = target: T5, Replicative DNA helicase DnaB (Mycobacterium tuberculosis, UniProt P9WMR3); assay: DnaB intein splicing inhibitors, dose response, biochemical, cell-free fluorescence (AID 449749); assay type: functional
T5 sequence (P9WMR3 whole entry): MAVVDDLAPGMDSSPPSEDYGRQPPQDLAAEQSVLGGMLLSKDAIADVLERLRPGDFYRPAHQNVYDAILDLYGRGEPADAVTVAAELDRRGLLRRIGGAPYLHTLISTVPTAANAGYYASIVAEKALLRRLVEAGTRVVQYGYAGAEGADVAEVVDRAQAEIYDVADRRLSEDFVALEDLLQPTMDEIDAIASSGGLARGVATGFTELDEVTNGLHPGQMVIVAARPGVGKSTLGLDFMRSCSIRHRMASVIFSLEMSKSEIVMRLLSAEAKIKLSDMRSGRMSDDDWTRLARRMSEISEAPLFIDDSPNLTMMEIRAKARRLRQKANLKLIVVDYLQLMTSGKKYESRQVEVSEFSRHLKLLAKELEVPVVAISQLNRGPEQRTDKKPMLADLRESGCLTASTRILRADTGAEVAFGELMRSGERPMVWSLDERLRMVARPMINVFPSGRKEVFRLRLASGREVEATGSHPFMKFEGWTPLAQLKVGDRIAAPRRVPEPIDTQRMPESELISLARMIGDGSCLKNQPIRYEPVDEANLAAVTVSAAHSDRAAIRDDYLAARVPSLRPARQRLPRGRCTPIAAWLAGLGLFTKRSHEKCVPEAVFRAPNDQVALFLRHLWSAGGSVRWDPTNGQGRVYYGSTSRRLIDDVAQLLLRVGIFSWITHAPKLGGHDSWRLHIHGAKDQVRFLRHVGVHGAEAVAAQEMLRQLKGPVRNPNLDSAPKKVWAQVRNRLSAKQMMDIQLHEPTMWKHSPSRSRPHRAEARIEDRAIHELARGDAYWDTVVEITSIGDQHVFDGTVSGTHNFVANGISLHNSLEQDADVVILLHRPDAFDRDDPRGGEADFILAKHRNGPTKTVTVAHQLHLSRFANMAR

[9] = microbe, parasite or virus in culture; assay type: functional; settings: Mycobacterium tuberculosis
Streptococcus = assay: GAS UMAA2166 growth inhibition – luminescence, BacTiterGlo, counter-screen for streptokinase expression inhibitor project, dose response (AID 1915); assay type: functional, organism-based;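 also: potency for reduction of bacterial viability or growth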
[10] = tested on: Streptococcus sp. 'group A'; assay: Streptococcus pyogenes SK(-)GAS viability under kanamycin – luminescence, BacTiterGlo, confirmation, counter-screen for streptokinase expression inhibitor project, dose response (AID 1900); assay type: functional, organism-based
Protein RecA = target: T6, Protein RecA (Mycobacterium tuberculosis, UniProt P9WHJ3); assay: Fluorescence Cell-Free Homogeneous Dose Retest to Identify Inhibitors of RecA-Intein Splicing Activity. [Related pubchem assays (depositor defined):AID2097, AID2223, AID489010, AID492950]; assay type: functional
T6 sequence (P9WHJ3 whole entry): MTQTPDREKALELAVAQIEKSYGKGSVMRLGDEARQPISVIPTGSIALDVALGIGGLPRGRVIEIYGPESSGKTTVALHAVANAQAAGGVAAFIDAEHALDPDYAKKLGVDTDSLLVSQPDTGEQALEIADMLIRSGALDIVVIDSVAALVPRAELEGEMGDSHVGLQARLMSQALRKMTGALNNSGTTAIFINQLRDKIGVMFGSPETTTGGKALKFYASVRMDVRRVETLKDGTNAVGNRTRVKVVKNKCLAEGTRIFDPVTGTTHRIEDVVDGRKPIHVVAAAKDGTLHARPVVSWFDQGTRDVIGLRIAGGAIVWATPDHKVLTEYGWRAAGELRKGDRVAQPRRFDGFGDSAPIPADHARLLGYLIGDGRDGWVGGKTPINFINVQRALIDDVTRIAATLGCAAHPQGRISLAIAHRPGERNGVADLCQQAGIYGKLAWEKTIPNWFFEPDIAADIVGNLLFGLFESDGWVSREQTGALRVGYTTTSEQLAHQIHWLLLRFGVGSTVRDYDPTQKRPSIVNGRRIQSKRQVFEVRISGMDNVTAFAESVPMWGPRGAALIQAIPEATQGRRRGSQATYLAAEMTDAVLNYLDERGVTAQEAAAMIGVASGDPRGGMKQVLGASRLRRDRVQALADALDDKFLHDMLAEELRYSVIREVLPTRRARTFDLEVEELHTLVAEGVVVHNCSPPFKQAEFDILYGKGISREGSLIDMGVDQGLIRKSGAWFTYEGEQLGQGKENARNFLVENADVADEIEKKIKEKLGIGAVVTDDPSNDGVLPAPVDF

Streptokinase A = target: T7, Streptokinase A (Streptococcus pyogenes serotype M1, UniProt P10520); assay: viability-normalized secreted streptokinase activity reduction – plasminogen activation absorbance, OD405, dose response (AID 1914); assay type: functional, Streptococcus pyogenes M1 GAS;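 also: secreted streptokinase activity via plasminogen activation per viability signal from cell pellet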
T7 sequence (P10520 whole entry): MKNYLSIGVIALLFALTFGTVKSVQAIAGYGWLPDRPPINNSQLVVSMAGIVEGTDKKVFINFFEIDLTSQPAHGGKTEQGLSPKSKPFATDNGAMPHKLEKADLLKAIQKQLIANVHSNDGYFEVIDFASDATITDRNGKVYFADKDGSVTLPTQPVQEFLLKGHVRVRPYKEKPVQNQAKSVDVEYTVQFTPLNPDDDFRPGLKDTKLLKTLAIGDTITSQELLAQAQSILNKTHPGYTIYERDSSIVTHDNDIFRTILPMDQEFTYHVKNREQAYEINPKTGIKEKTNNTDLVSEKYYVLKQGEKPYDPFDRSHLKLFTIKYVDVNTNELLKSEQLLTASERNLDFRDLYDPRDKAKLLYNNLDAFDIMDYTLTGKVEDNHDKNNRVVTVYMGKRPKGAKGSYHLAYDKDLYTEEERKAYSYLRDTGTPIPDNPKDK

T3 sequence (P11940 whole entry, the tested form may be a part): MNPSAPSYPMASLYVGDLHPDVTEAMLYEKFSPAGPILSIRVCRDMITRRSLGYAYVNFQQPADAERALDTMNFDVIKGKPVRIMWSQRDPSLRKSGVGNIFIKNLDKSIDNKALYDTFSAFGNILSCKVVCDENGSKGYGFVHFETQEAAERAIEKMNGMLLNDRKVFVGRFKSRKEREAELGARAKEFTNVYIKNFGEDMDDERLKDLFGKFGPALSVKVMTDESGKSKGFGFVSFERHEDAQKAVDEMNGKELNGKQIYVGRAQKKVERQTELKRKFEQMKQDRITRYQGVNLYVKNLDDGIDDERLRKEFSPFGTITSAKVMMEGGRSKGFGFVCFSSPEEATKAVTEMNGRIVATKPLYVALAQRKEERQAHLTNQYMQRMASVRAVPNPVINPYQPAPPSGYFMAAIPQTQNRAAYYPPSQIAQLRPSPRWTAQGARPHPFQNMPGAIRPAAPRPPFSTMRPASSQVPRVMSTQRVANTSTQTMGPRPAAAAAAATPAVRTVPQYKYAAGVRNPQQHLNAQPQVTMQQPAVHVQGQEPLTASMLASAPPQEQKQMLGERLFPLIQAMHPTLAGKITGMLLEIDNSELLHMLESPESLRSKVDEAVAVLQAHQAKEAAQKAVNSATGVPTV
Sequence of Large T antigen (P03070 whole entry): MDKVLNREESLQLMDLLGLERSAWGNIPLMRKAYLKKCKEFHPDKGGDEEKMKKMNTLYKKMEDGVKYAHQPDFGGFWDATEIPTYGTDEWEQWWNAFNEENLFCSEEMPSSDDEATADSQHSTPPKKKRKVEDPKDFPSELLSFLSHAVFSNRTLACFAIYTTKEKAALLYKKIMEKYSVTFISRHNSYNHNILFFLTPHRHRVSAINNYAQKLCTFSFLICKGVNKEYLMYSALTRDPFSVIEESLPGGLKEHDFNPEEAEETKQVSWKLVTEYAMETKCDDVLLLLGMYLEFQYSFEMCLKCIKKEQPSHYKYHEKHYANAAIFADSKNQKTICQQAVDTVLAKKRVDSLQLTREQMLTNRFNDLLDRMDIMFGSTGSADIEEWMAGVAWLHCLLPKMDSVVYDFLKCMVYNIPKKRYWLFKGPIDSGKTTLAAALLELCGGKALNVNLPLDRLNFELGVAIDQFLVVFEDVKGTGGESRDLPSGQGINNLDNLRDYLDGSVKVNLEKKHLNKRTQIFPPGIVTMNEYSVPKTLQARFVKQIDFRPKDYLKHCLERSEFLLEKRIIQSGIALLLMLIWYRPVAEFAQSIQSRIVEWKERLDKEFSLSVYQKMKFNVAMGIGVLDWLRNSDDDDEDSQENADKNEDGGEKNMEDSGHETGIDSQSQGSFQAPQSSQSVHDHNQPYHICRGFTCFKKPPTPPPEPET
Sequence of Glyceraldehyde-3-phosphate dehydrogenase (P04406 whole entry): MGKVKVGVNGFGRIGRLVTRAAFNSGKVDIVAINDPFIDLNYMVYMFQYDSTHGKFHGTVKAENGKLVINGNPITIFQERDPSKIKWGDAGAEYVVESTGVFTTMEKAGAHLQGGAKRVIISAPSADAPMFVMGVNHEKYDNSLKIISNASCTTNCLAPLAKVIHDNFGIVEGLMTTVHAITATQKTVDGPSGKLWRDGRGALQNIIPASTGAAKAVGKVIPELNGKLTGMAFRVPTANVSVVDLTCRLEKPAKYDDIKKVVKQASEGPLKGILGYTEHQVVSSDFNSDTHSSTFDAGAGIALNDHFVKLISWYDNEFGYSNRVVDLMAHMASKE

C/C(=N/NS(=O)(=O)c1cccc([N+](=O)[O-])c1)c1c[nH]c2ccccc12
IC50 (Large T antigen): 17 µM (active)

CCC(ONc1ccccc1C(F)(F)F)(C(=O)NN(C)C)c1ccccc1 (configuration not stated)
IC50 (H9c2): 33.3 µM (inactive)

Cc1ccc2cc3c(N)[nH]nc3nc2c1
IC50 (Large T antigen): 13.1 µM (active)

COC(=O)c1ccc(C(C(=O)NCc2ccccc2)N(Cc2cccs2)C(=O)c2cnccn2)cc1 (configuration not stated)
IC50 (H9c2): 8.82 µM (active)

O=C(CC1CCCCC1)Nc1nc[nH]n1
IC50 [1]: > 10 µM (inconclusive)

CCC(CC)C(=O)Nc1cc(C)c2c(=O)oc3ccccc3c2n1
IC50 (H9c2): > 79 µM (inactive)

CN(C)/C=C/C(=O)c1cnc(-c2ccccc2Cl)s1
EC50 [2]: > 300 µM (not active)
EC50 [3]: > 300 µM (not active)

Cc1ccc(S(=O)(=O)Nc2ccc(O)c(C(=O)O)c2)c(C)c1
IC50 [1]: > 100 µM (not active)

COc1ccc(OCC(O)Cn2c(Br)nc3c2c(=O)[nH]c(=O)n3C)cc1 (configuration not stated)
IC50 (H9c2): 16.4 µM (active)

CCOC(=O)C1CCN(c2cc3c(cc2NC(=O)c2ccccc2Cl)n(C)c(=O)n3C)CC1
IC50 (H9c2): > 79 µM (inactive)

COc1ccc(C(=O)COC(=O)c2ccc([N+](=O)[O-])s2)cc1OC
IC50 (cells): 10.6 µM (active)
IC50 (H9c2): > 79 µM (inactive)

CC(C)OCCCNC(=O)CCC(=O)NNc1nc2ccccc2c2nc(-c3ccccc3)nn12
IC50 (H9c2): 13.5 µM (active)

CCOC(=O)C1=C(O)/C(=C/c2cccc(OC)c2O)N=C1C
IC50 (Large T antigen): 16.4 µM (active)

CC1CCN(C(=O)CSc2nncn2-c2ccccn2)CC1
IC50 [4]: > 66 µM (inactive)
IC50 [5]: > 66 µM (inactive)

NC(=S)c1cnn2c(-c3cccc(C(F)(F)F)c3)ccnc12
IC50 [4]: > 66 µM (inactive)
IC50 [5]: > 66 µM (inactive)

Cc1ccccc1NC(=O)CSC(=O)c1ccccc1
IC50 [4]: > 66 µM (inactive)
IC50 [5]: > 66 µM (inactive)

O=C(NC(=S)N1CCCCCC1)c1ccccc1Cl
IC50 [4]: > 66 µM (inactive)
IC50 [5]: > 66 µM (inactive)

N#CC1=C(N)OC2=C(C(=O)CC(c3ccccc3)C2)C1c1ccc2c(c1)OCO2 (configuration not stated)
EC50 [2]: > 300 µM (not active)
EC50 [3]: > 300 µM (not active)
IC50 [6]: > 47.1 µM (inactive)
EC50 [7]: > 53 µM (inactive)

O=C(O)CN1C(=O)C2C3CC(C2C1=O)C1C(c2ccc(F)cc2)c2sc(O)nc2SC31 (configuration not stated)
IC50 [4]: > 66 µM (inactive)
IC50 [5]: > 66 µM (inactive)

Cc1cc2cc(CNC(=O)Cc3cccs3)ccc2n1C
IC50 [4]: > 66 µM (inactive)
IC50 [5]: > 66 µM (inactive)

O=C(COc1ccc(Cl)cc1)NCc1nnc(O)c2ccccc12
IC50 (H9c2): > 79 µM (inactive)

CCc1ccc(N2C(=O)NC(=O)/C(=C\c3cc(C)n(-c4cc(C(=O)O)cc(C(=O)O)c4)c3C)C2=O)cc1
EC50 [2]: > 300 µM (not active)
EC50 [3]: > 300 µM (not active)

CC(C)C1Nc2ccc(S(N)(=O)=O)cc2C2C=CCC21 (configuration not stated)
EC50 [2]: 30.4 µM (active)
EC50 [3]: 52.4 µM (active)

COc1ccc(-c2oc(NC(=O)CCl)c(C#N)c2-c2ccc(OC)cc2)cc1
AC50 [8]: 0.416 µM (active)
CC50 [9]: 10.1 µM (active)
EC50 (Streptococcus): > 150 µM (not active)
EC50 [10]: 1.18 µM (active)
EC50 (Protein RecA): 0.67 µM (active)
EC50 (Streptokinase A): 1.16 µM (active)
